We go through 6 molecules from patent US20140329863A1 (priority 2011, published 2014).

Values after ≈ are worked out from the molar mass of the structure shown. Where two headings read alike, the source gives them in different places. Some results are limits rather than exact numbers.

For orientation: EC50 means the concentration at which the effect is half-maximal. As usually defined, the solubility is how much of the substance goes into solution per volume. The half-life is the time in which the quantity being followed falls by half. High values mean slow loss, low ones fast loss. One may read the melting point as the temperature of the solid-liquid transition.

The nature of series [1]: Multidose (three-day) pharmacokinetics in liquid diet in FVB mice. To be noted: FVB, mouse, in vivo.
Series [2] is described as follows: Multiple-dose (three-day) pharmacokinetic studies in FVB mice, drug in liquid diet. Type of series: in vivo, mouse. To be noted: FVB, mouse, oral, 3 days in liquid diet, 40, 80, 130, 210 mg/kg/day. The procedure:
Aminothiazole analog (e.g., 4.5 g of 27) was added to 15 mL of pure PEG400, vortexed and sonicated to ensure dissolution, then stored at −4° C. until needed. This highly concentrated PEG400 solution was subsequently diluted to final dosing concentrations, where the volume added was composed of homogenized solid rodent feed, cocoa (taste masking agent), and water. Wild-type FVB mice weigh ˜25 gm and typically drink 20 mL of liquid diet per day, allowing an estimate of daily drug consumption. A single dosing cohort consisted of three mice in a shared cage and liquid diet was provided at the start of the study in sufficient volume to last for the entire three-day trial (˜200 mL). At the end of the three-day dosing period, animals were euthanized by CO2, followed by collection of plasma (cardiac puncture) and removal of whole brain. Heparinized blood was centrifuged to separate plasma and both plasma and brain samples were stored at −80° C. prior to analysis. Plasma samples were prepared for analysis by precipitating proteins and reconstituting the remaining fraction with HPLC mobile phase. Brain samples were typically prepared by four-fold dilution with water after weighing, then homogenized using bead-beater or Polytron™ resulting in a highly concentrated solution that was further diluted with mobile phase as appropriate in preparation for bioanalytical analysis using LC-MS. Analysis was by LC-MS (Shimadzu dual-HPLC pumps, C18 analytical column, with detection using an Applied Biosystems API-4000 triple quadrupole mass spectrometer).
Ten compounds were selected from among the 34 2-AMTs for three-day multiple-dose PK studies at PO doses ranging from 40-210 mg/kg. Selection was based on diversity in potency, chemical structure, and a range of physicochemical properties. We used a liquid diet to facilitate easy drug administration, as well as serve as the daily source of all water and food. This approach was chosen because the mouse bioassay studies that would be used to assess drug effects on survival would be expected to run for 110 to 400 days, or more; gavage dosing for such a long period is not feasible and more stressful to mice. For the multiple-dose PK studies, 4.5 g of the 2-AMT analogs was added to 15 mL of pure PEG400, vortexed and sonicated to ensure dissolution, then stored at −4° C. until needed. This highly concentrated PEG400 solution was subsequently diluted to final dosing concentrations and added to the rodent liquid diet, cocoa (taste-masking agent), and water.
Wild-type FVB mice weigh ˜25 g and typically drink 20 mL of liquid diet per day, allowing an estimate of daily drug consumption. A single dosing cohort consisted of three mice in a shared cage and liquid diet was provided at the start of the study in sufficient volume (˜200 mL) to last for the entire three-day period. At the end of the dosing period, animals were euthanized by CO2, followed by collection of plasma (cardiac puncture) and removal of whole brain. Samples were processed and stored as described above for the 10 mg/kg single-dose studies.
Plasma and brain homogenate samples were extracted using a protein-precipitation method and analyzed by specific LC/MS/MS methods developed for each compound dosed in vivo. The analytical method accuracy and precision were monitored by analyzing quality control (QC) samples that were prepared by the same methods as the plasma or brain homogenate samples. The brain and plasma concentration data were used to calculate the maximal concentration (Cmax), area under the concentration-time curve (AUClast), and absolute bioavailability (% F) by noncompartmental analysis with sparse sampling performed using Phoenix WinNonlin 6.1 software (Pharsight, Mountain View, Calif.).

Series [3] concerns PrP^Sc in dividing ScN2a-cl3 cells. It counts as cell-based, mouse.
For series [4] the following is noted: "rat human hepatic microsomes", NADPH with UDPGA or PBS.
Series [5] in a line: Single-dose pharmacokinetics in FVB mice (oral gavage, IV). As to conditions: single oral dose, FVB mice, brain.
Series [6] is described as follows: Single-dose pharmacokinetic studies in female FVB mice (PO, IV, IP). It counts as in vivo, mouse. To be noted: single 40 mg/kg oral dose. The procedure:
For in-vivo pharmacokinetic studies, compounds were dissolved in a formulation containing 20% propylene glycol, 5% ethanol, 5% labrosol, and 70% polyethylene glycol 400 (PEG400) and administered by oral gavage to female FVB mice weighing ˜25 g. At specified time points after dosing (0.25, 0.5, 1, 2, 4, 6, and 24 h), 2 animals were euthanized by CO2, and ˜1 mL blood (by cardiac puncture) and brain samples were collected. The heparinized blood samples were centrifuged to obtain plasma, which was stored at −80° C. until analysis. Brain samples were weighed, diluted […] with water, and then homogenized using a Precellys 24 tissue homogenizer. Brain homogenates (20% wt/vol) were stored at −80° C. until analysis. Pharmacokinetic protocols involving animals were all reviewed and approved by the UCSF institutional animal care and use committee (IACUC).
Plasma and brain homogenate samples were extracted using a protein-precipitation method and analyzed by specific LC/MS/MS methods developed for each compound dosed in vivo. The analytical method accuracy and precision were monitored by analyzing quality control (QC) samples that were prepared and treated using the same methods as calibration standards for the plasma or brain homogenate samples.
The data were used to calculate the area under the concentration-time curve (AUClast) by noncompartmental analysis with sparse sampling performed using Phoenix WinNonlin 6.1 software (Pharsight, Mountain View, Calif.).
Pharmacokinetic protocols employing mice were reviewed and approved by the UCSF Institutional Animal Care and Use Committee (IACUC). Female FVB mice, weighing approximately 25 g, were used for all in vivo pharmacokinetic studies. Mice were housed with free access to food and water, and were maintained on 12-h light/dark cycles for 1 week before dosing studies were initiated.
For the single-dose of 40 mg/kg, compounds were dissolved in a formulation containing 5% propylene glycol, […] α-tocopheryl polyethylene glycol 1000 succinate (TPGS) and 70% polyethylene glycol 400 (PEG400), and administered by oral gavage. Two animals per time point were used. At specified time points after dosing (0.5, 1, 2, 4, 6, and 24 h), animals were euthanized by CO2, and blood for plasma (by cardiac puncture) and brain samples were collected. The heparinized blood samples were centrifuged to obtain plasma. Brain samples were weighed, diluted 10-fold with water, and then homogenized using a Precellys 24 tissue homogenizer. The brain and plasma samples were flash-frozen on dry ice and then stored at −80° C. until analysis. For the single-dose administration at 10 mg/kg, compounds were dissolved in a formulation containing 20% propylene glycol, 5% ethanol, 5% labrosol, and 70% PEG400, and administered by oral gavage. Two animals per time point were used. At specified time points after dosing (0.25, 0.5, 1, 2, 4, 6, and 24 h), animals were euthanized by CO2, and blood for plasma (by cardiac puncture) and brain samples were collected. The heparinized blood samples were centrifuged to obtain plasma. Brain samples were weighed, diluted five-fold with water, and then homogenized using a Precellys 24 tissue homogenizer. The brain and plasma samples were flash-frozen on dry ice and then stored at −80° C. until analysis.
Compounds were administered through tail vein injection. Two animals per time point were used. At specified time points after dosing (5 min, 0.25, 0.5, 1, 2, 4, and 6 h), animals were euthanized by CO2. Blood and brain samples were obtained and processed as described above for the oral dosing at 40 mg/kg.
Plasma and brain homogenate samples were extracted using a protein-precipitation method and analyzed by specific LC/MS/MS methods developed for each compound dosed in vivo. The analytical method accuracy and precision were monitored by analyzing quality control (QC) samples that were prepared by the same methods as the plasma or brain homogenate samples. […]

The nature of series [7]: Hepatic microsomal stability, rat.
Series [8] can be described thus: Hepatic microsomal stability, human. To be noted: for half-life at 1 μM: human, pH 7.4.
Series [9] can be described thus: Hepatic microsomal stability, mouse. As to conditions: for half-life at 1 μM: CD-1, mouse, pH 7.4.
Assay in series [10]: not given
The source holds these as a separate data set.

Setting [11] is: 40 mg/kg, Plasma Concentration (Css), three-day dosing in liquid diet, plasma.
The mark [12] stands for this setting: 80 mg/kg, Brain Concentration (Css), three-day dosing in liquid diet, brain.
[13] abbreviates: 80 mg/kg, Plasma Concentration (Css), three-day dosing in liquid diet, plasma.
Setting [14] is: 130 mg/kg, Brain Concentration (Css), three-day dosing in liquid diet, brain.
The mark [15] stands for this setting: 130 mg/kg, Plasma Concentration (Css), three-day dosing in liquid diet, plasma.
Where [16] appears, read: 210 mg/kg, Brain Concentration (Css), three-day dosing in liquid diet, brain.
Setting [17] is: 210 mg/kg, Plasma Concentration (Css), three-day dosing in liquid diet, plasma.
Setting [18] is: Brain and plasma concentrations, 40, 80, 130 and 210 mg/kg/day for 3 days.
Setting [19] is: brain, read-out: brain concentration.
The mark [20] stands for this setting: plasma, read-out: plasma concentration.
The mark [21] stands for this setting: Table 29, 2-AMT analogs tested for potency, usually n = 3 or more.
[22] abbreviates: cell culture media, plasma or biological fluid.

With `c1ccc2cc(Nc3nc(-c4cc5ccccc5o4)cs3)ncc2c1` [IND91, (4-Benzofuran-2-yl-thiazol-2-yl)-isoquinolin-3-yl-amine], the concentration at 3 days worked out at 260 ± 130 nM in [1] (setting [11]); 190 ± 90 nM in series [1] (setting [12]); 1550 ± 360 nM in series [1] (setting [13]); 260 ± 120 nM in series [1] (setting [14]); 1740 ± 310 nM in series [1] (setting [15]); 280 ± 40 nM in [1] (setting [16]). Moreover, the concentration at 3 days is 3060 ± 560 nM in [1] (setting [17]), not above 1000 nM in series [1] (setting [18]), not above 1000 nM in series [2] (setting [19]) and not above 1000 nM in [2] (setting [20]). The EC50 in series [3] (AMT analogs tested for potency) and in series [3] (setting [21]) was 0.923 µM in each case. In the series “physchem” (setting [22]), this molecule showed a solubility of 151 µM (≈ 51.9 µg/mL).
For `Cc1ncc2n1-c1ccc(Cl)cc1C(c1ccccc1F)=NC2` [Midazolam, reference compound], the “T1/2, control incubations” value in series [4] was determined as 0.183 h.
In the case of `Cc1ccnc(Nc2nc(-c3ccc(O)cc3)cs2)c1` [IND49, 4-[2-(4-Methyl-pyridin-2-ylamino)-thiazol-4-yl]-phenol], the “Brain exposure (AUClast) ranking” value in series [5] is on record as “lowest AUClast values”. Also, the EC50 in [3] (AMT analogs tested for potency) and in series [3] (setting [21]) was more than 10 µM throughout. Also, in series [6], the “AUC0->last, brain exposure” value is given as “lowest AUClast values”.
As for `O=[N+]([O-])c1ccc(O)cc1` [4-Nitrophenol, reference compound], in [4], the “T1/2, control incubations” value was 0.333 h.
Take `COc1ccc(-c2csc(Nc3cc4ccccc4cn3)n2)cc1OC` [IND46, [4-(3,4-Dimethoxy-phenyl)-thiazol-2-yl]-isoquinolin-3-yl-amine]: the half-life at 1 μM is more than 1 h in [7] (Sprague-Dawley, rat, […], pH 7.4); more than 1 h in series [8] (human liver microsomes); more than 1 h in series [8] (liver microsomes); 1.25 h in series [9] (liver microsomes); more than 1 h in series [9] (mouse liver microsomes). The “% remaining after a 60-min incubation, Rat” value in series [7] ([…], 60-min incubation) came out at 61%. Besides, the “t1/2 Rat (extrapolated)” value in [7] (rat microsomes, * extrapolated) is 83* min. Moreover, the “solubility in FaSSIF (in words)” value (fasted-state simulated intestinal fluid) is recorded as “lower solubility”. Where the note is “pH 2 (HCl) buffer”, the “solubility at pH 2.0 (in words)” value is recorded as “lower solubility”. In addition, the “% remaining after a 60-min incubation, Human” value in series [8] (human liver microsomes, 60-min incubation) was 83%. Also, the concentration at 3 days in series [1] (40 mg/kg, Brain Concentration (Css), three-day dosing in liquid diet, brain) was determined as 30 ± 30 nM; in series [1] (setting [11]), 50 ± 20 nM; in series [1] (setting [12]), 60 ± 70 nM; in series [1] (setting [13]), 60 ± 30 nM; in series [1] (setting [14]), 140 ± 40 nM; in series [1] (setting [15]), 80 ± 40 nM. The concentration at 3 days in series [1] (setting [16]) was 320 ± 110 nM; in [1] (setting [17]), 140 ± 30 nM; in [1] (setting [18]) it was not above 1000 nM; in series [2] (setting [19]) it was not above 1000 nM; in [2] (setting [20]) it was not above 1000 nM. Besides, the “% remaining after a 60-min incubation, Mouse” value in series [9] (mouse liver microsomes, 60-min incubation) was found to be 58%. Besides, the solubility in the series “physchem” (FaSSIF) is 5 µM (≈ 1.82 µg/mL); in “physchem” (setting [22]) it was 174 µM (≈ 63.2 µg/mL); in the series “physchem” (pH 2 (HCl) buffer, pH 2, simulated gastric fluid), less than 1 µM; in “physchem” (pH 7.4 (phosphate) buffer, pH 7.4, aqueous buffer), less than 1 µM.
As for `Cc1ccnc(Nc2nc(-c3ccccc3O)cs2)c1` [IND48, 2-[2-(4-Methyl-pyridin-2-ylamino)-thiazol-4-yl]-phenol], the “Brain exposure (AUClast) ranking” value in [5] was “lowest AUClast values”. Further, the melting point in series [10] lay within 249 to 250 °C. The concentration for a half-maximal effect (EC50) in series [3] (AMT analogs tested for potency) and in [3] (setting [21]) was more than 10 µM throughout. For the same molecule, the “AUC0->last, brain exposure” value in series [6] is listed as “lowest AUClast values”.
